{"source": "patent US12509530B2", "about": "“Single domain antibodies directed against intracellular antigens” (Singh Molecular Medicine, LLC, priority 2015, dated 2025)", "molecules": {"B1": {"name": "anti-STAT3 VHH14: anti-STAT3 single domain antibody, SEQ ID NO:4 (same sequence as STAT3_14, SEQ ID NO: 8) (protein)", "VHH": "QVQLVESGGGSVQAGGSLRLSCVASTYTGCMGWFRQAPGKEREGVAALSSRGFAGHYTDSVKGRFSISRDYVKNAVYLQMNTVKPEDAAMYYCAAREGWECGETWLDRTAGGHTYWGQGTLVTVSS", "modifications": "Camelid"}, "B2": {"name": "anti-TNF-α VHH69: anti-TNF-α sdAb, SEQ ID NO:46 (TNF_69, SEQ ID NO: 64) (protein)", "VHH": "EVQLVESGGGSVLAGGSLRLSCVASGFTSRYNYMAWFRQAPGKEREGVATIGTASGSADYYGSVKDRFTISQDNAKNTVYLQMNSLKPEDTAMYYCAARTYGTISLTPSDYRYWGQGTLVTVSS", "modifications": "Camelid"}, "B3": {"name": "anti-TNF-α VHH62: anti-TNF-α sdAb, SEQ ID NO:47 (TNF_62, SEQ ID NO: 66) (protein)", "VHH": "QVQLVESGGGPVQAGETLRLSCTASGFTFAEADMGWYRQAPGHECELVSTITTEGITSEASSYYADSVRGRFTISRDNAKNMVYLQMNSLKPEDTAVYYCAPDPYAYSTYSDYCSWAQGTQGTLVTVSS", "modifications": "Camelid"}}, "key": {"Human recombinant TNF-α": {"target": "T1, Human recombinant TNF-α (Homo sapiens, UniProt P01375)", "T1 construct": "purchased Sigma-Aldrich", "T1 sequence (P01375 77-233 limits assumed)": "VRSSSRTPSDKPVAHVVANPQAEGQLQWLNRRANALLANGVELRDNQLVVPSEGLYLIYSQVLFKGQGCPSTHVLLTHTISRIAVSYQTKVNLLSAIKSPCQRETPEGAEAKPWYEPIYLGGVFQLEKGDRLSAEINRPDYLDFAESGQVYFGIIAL", "assay": "Inhibition of TNF-α cytotoxicity in L929 cells (MTS/PMS)", "type": "cell-based, mouse"}, "MDA-MB-231 cells": {"tested_on": "MDA-MB-231 cells", "assay": "MTT proliferation assay, MDA-MB-231", "type": "cell-based, human", "settings": "test article cloudy; cells lost normal morphology"}, "PANC-1 cells": {"tested_on": "PANC-1 cells", "assay": "MTT proliferation assay, PANC-1", "settings": "Homo sapiens, PANC-1, 72 h"}, "STAT3": {"tested_on": "STAT3", "assay": "STAT3 reporter GloResponse SIE-luc2P/HEK293 assay, IL-6 induction", "type": "cell-based, human", "settings": "24 and 48 hours treatment"}, "SJSA-1 xenograft [1]": {"tested_on": "SJSA-1 xenograft", "settings": "mouse, in vivo"}, "SJSA-1 xenograft [2]": {"tested_on": "SJSA-1 xenograft", "assay": "SJSA-1 bone osteosarcoma subcutaneous xenograft model", "settings": "SBT-100 5.0 mg/kg BIDx14, Doxorubicin 7.0 mg/kg days 1, 8, 14, IP"}, "[3]": {"target": "T2, active human TNF-α full length protein (Homo sapiens, UniProt P01375)", "T2 construct": "active human TNF-α full length protein; purchased Abcam", "T2 sequence (P01375 77-233 limits assumed)": "as above", "assay": "TNF-α binding ELISA", "settings": "for detection in coated vs non-coated wells: 0.5 μg/mL coating antigen; for detection / binding to the TNF-α protein: Experiment 1", "method": "In this Example, the binding of anti-TNF-α sdAbs to active human TNF-α full length protein was assessed using an enzyme linked immunosorbent assay (ELISA) format. Additionally, the feasibility of utilizing a secondary antibody targeted to the his tag portion of the sdAbs was assessed.\nThe test articles for this study were anti-TNF-α VHH62 (SEQ ID NO:47) sdAb, TNF-α VHH66 (SEQ ID NO:45) sdAb, and anti-TNF-α VHH69 (SEQ ID NO:46) sdAb (Experiment 1).\nFor the assays to assess the binding of the sdAbs to TNF-α protein (Experiment 1, 4 and 5), a standard sandwich ELISA format was utilized. […] Plates were incubated overnight at 2-8° C. After the incubation, plates were washed (3×) and blocked (3% Bovine Serum Albumin (BSA) in Phosphate Buffered Saline (PBS)) for at least one hour at room temperature.\nAfter removal of the blocking buffer and washing (3×), samples were added to the appropriate wells of the ELISA plates and incubated at room temperature with shaking (150 rpm) for at least one hour. The secondary antibody (rabbit anti-llama biotinylated antibody at either a1:5,000 or 10,000 dilution) was then added to each well and incubated with shaking for at least one hour at room temperature.\nAfter the incubation with secondary antibody, the plates were again washed (3×) and horseradish peroxidase (HRP) at either a 1:25,000 or 1:50,000 dilution was added to each well. Plates were incubated with shaking for at least one hour at room temperature. A final wash (3×) was performed followed by the addition of TMB (Tetramethylbenzidine) substrate. After a 20 to 25 minute incubation at room temperature, stop solution was added to halt the colorimetric reaction. The absorbance at 450 nm was measured on a VersaMax instrument utilizing SoftMax Pro GxP version 5.4 software from Molecular Devices (Sunnyvale, CA).\nThe final experiment performed was to confirm that the results from the ELISA testing were due to binding to the TNF-α protein and not non-specific binding of the sdAb. For this determination, a comparison was made between wells coated with 0.5 μg/mL of coating antigen and non-coated wells. […] This experiment confirms that the detection seen with the previous experiments was due to the specific binding of the VHH to the coating antigen and not due to non-specific binding."}}, "note": "Values joined by “and” are separate entries in the source; they are usually repeats but may differ in a detail not shown here. Equal entries are not always repeated. Numbered stars: 1 amine (or outer) side, 2 acyl side, 3 side chain; on linkers, the order of the positions; unused ones are H or OH. Bridge positions count the residues as written; N and C are the ends. Square brackets hold non-standard residues; d marks the D form. Peptide text beside a SMILES is read from it. I, II: the chains in the order shown. Actinocin(9to1) = Cc1c2oc3c(C)ccc(C(=O)[*:1])c3nc-2c(C(=O)[*:2])c(N)c1=O; NMeV = CN[C@H](C(=O)O)C(C)C; Sar = CNCC(=O)O"}
{"molecule": "Cc1c2oc3c(C)ccc(C(=O)N[C@@H]4C(=O)N[C@H](C(C)C)C(=O)N5CCC[C@H]5C(=O)N(C)CC(=O)N(C)[C@@H](C(C)C)C(=O)O[C@@H]4C)c3nc-2c(C(=O)N[C@@H]2C(=O)N[C@H](C(C)C)C(=O)N3CCC[C@H]3C(=O)N(C)CC(=O)N(C)[C@@H](C(C)C)C(=O)O[C@@H]2C)c(N)c1=O", "note": "[Actinomycin D] (I: T[dV]P[Sar][NMeV] / II: T[dV]P[Sar][NMeV]; ester I:1-I:C, II:1-II:C; linker I:N-II:N via Actinocin(9to1))", "values": [{"measurement": "% Toxicity, Sample Replicate #", "setting": "Human recombinant TNF-α; Assay 1 control, Actinomycin D only (no TNFα)", "value": "5.4% and 2.3% and 3.5% and 0% (8×)"}, {"measurement": "% Toxicity, Sample Replicate #", "setting": "Human recombinant TNF-α; Assay 2 control, Actinomycin D only (no TNFα)", "value": 0, "unit": "%"}]}
{"molecule": "MPT His Tag: anti-STAT3 VHH13 (SBT-100) preparation produced by Microprotein Technologies, His tagged", "values": [{"measurement": "inhibition compared with the other SBT-100 preparations", "setting": "MDA-MB-231 cells", "value": "greatest inhibition"}]}
{"molecule": "TNFa", "values": [{"measurement": "% Toxicity, Sample Replicate #", "setting": "Human recombinant TNF-α; Assay 1 control, TNFa 0.5 μg/mL", "value": "101.9% and 101.6% and 101.8% (3×) and 102.1% (4×) and 102.6% and 102.7% and 101.7%"}]}
{"molecule": "Nc1ccn([C@@H]2O[C@H](CO)[C@@H](O)C2(F)F)c(=O)n1", "note": "[Gemcitabine]", "values": [{"measurement": "inhibition at 0.313 µM", "setting": "PANC-1 cells; read-out: % Inh, Gemcitabine Hydrochloride (Biovision #1759) 0.313 μM, 72 hours", "value": 0, "unit": "%"}, {"measurement": "inhibition at 0.625 µM", "setting": "PANC-1 cells; read-out: % Inh, Gemcitabine Hydrochloride (Biovision #1759) 0.625 μM, 72 hours", "value": 2, "unit": "%"}, {"measurement": "inhibition at 5 µM", "setting": "PANC-1 cells; read-out: % Inh, Gemcitabine Hydrochloride (Biovision #1759) 5 μM, 72 hours", "value": 36, "unit": "%"}, {"measurement": "inhibition at 10 µM", "setting": "PANC-1 cells; read-out: % Inh, Gemcitabine Hydrochloride (Biovision #1759) 10 μM, 72 hours", "value": 46, "unit": "%"}]}
{"molecule": "CC(=O)c1cc2c(o1)C(=O)c1ccccc1C2=O", "note": "[BB1608, napabucasin, reference compound]", "values": [{"measurement": "effect on IL-6 induction of the reporter", "setting": "STAT3", "value": "Inhibition of IL-6"}]}
{"molecule": "COc1cccc2c1C(=O)c1c(O)c3c(c(O)c1C2=O)C[C@@](O)(C(=O)CO)C[C@@H]3O[C@H]1C[C@H](N)[C@H](O)[C@H](C)O1", "note": "[Doxorubicin, reference compound]", "values": [{"measurement": "number of surviving at the end of the study", "setting": "SJSA-1 xenograft [1]; Hsd: Athymic Nude-Fox1nu", "value": 2}, {"measurement": "Are the survival curves sig different?", "setting": "SJSA-1 xenograft [1]", "value": "Yes"}, {"measurement": "Tumor measurement, individual animals", "setting": "SJSA-1 xenograft [2]; day 8 post implant", "value": 0.00, "unit": "mm^3"}, {"measurement": "Tumor measurement, Mean Abs", "setting": "SJSA-1 xenograft [2]; day 13 post implant", "value": 70.72, "unit": "mm^3"}, {"measurement": "Tumor measurement, individual animals", "setting": "SJSA-1 xenograft [2]; day 23 post implant", "value": 116.85, "unit": "mm^3"}]}
{"molecule": "B1", "values": [{"measurement": "effect on IL-6 induction of the reporter", "setting": "STAT3", "value": "enhancement of the IL-6 induction"}]}
{"molecule": "B2", "values": [{"measurement": "effect on IL-6 induction of the reporter", "setting": "STAT3", "value": "enhancement of the IL-6 induction"}, {"measurement": "detection in coated vs non-coated wells", "setting": "[3]; 1 μg/mL sdAb", "value": "detected in coated wells but not in non-coated wells"}, {"measurement": "detection / binding to the TNF-α protein", "setting": "[3]; 1 μg/mL sdAb", "value": "little to no detection"}]}
{"molecule": "B3", "values": [{"measurement": "detection in coated vs non-coated wells", "setting": "[3]; 1 μg/mL sdAb", "value": "not detected in either coated or non-coated wells"}, {"measurement": "detection / binding to the TNF-α protein", "setting": "[3]; 1 μg/mL sdAb", "value": "little to no detection"}, {"measurement": "OD values", "setting": "[3]; Experiment 4, 10-fold serial dilutions, old and new batch", "value": "< 0.2", "unit": "OD450"}, {"measurement": "OD450 Values, Non-Coated", "setting": "[3]; non-coated wells (non-specific binding), 1 μg/mL sdAb", "value": "−0.001"}]}
